Measured values taken from patent US20250302720A1, “PEPTIDE-BASED HAIR TREATMENT” (Sederma, priority 2020, published 2025).
Residues, ends and D or L forms follow the SMILES beside them.

Experiments:
catalase = experiment: Catalase activity of the NHM (resorufin reagent); format: cell-based, human; conditions: 24 h, vs control
Description: NHM almost at confluence are brought into contact with the peptide according to the invention for 24 hours. At the end of this contact, the cells are crushed. The catalase activity extracted from these cells is measured using resorufin reagent. The latter combines with the H2O2 remaining in the reaction well after the action of cellular catalase. A protein assay using bicinchoninic acid (BCA) method is used to estimate the cell quantity to homogenize the obtained data.

[1] = system: reduced glutathione (GSH); experiment: Reduced glutathione of the NHM (fluorescent probe); format: cell-based, human; conditions: 24 h, vs control
Description: NHM almost at confluence are brought into contact with the peptide according to the invention for 24 hours. After this contact, the cells are broken in an extraction buffer that preserves glutathione. The amount of GSH is determined by a specific fluorescent probe.

BCL-2 gene = BCL-2 gene expression in NHM (qRTPCR); format: cell-based, human; conditions: 72 hours, vs control
Description: NHM are cultivated and brought into contact with the peptide according to the invention or its solvent. At the end of 72 hours of contact, the melanocytes are crushed, and the mRNA are recovered, converted into cDNA which are analyzed by a qRTPCR to evaluate the changes in the level of expression of the mRNA of BCL-2.

[2] = system: Normal human keratinocytes (NHK); experiment: Microbead (melanosome mimic) phagocytosis by keratinocytes; format: cell-based; conditions: 24 hours then microbeads 3 hours, vs control
Description: Normal human keratinocytes (NHK) are seeded and cultured until a mat of confluent cells is obtained. The cells are brought into contact with the peptide according to the invention for 24 hours and a solution of fluorescent microbeads mimicking the melanosomes of the melanocyte is added for 3 hours. The beads are phagocytosed (ingested) by the keratinocytes and quantified, after rinsing, by image analysis. In parallel, the cell nuclei are counterstained using the Hoescht33258 fluorescent dye to estimate the cell quantity and to harmonize the data.

[3] = system: Normal human skin melanocytes (NHM); experiment: Melanin production by NHM after 10 days; format: cell-based; conditions: vs control, n = 4
Description: Normal human skin melanocytes (NHM), little or moderately melanin producing are used. These cells are cultured and brought into contact for 10 days with the peptide according to the invention at different concentrations or with its solvent in equivalent concentration (control). Culture media are changed every 2-3 days. After this contact, the cell mats are crushed, and the melanin is extracted from the cells. The melanin quantity is evaluated spectrophotometrically at 490 nm, using a standard range previously established from a melanin solution. Protein assay using the Bicinchoninic Acid (BCA) method is used to estimate the cell quantity to homogenize the obtained data.

tyrosinase = experiment: Tyrosinase (dopa-oxidase) activity extracted from NHM after 10 days; format: cell-based, human; conditions: vs control, n = 4
Description: The same culture and contact protocol as above are used with the melanocytes of two different donors with regard to their production of melanin (moderately and poorly pigmented).
After contact, the tyrosinase was extracted from the cells and its dopa-oxidase activity is assessed using the substrate L-DOPA at 37° C. The absorbance due to the production of Dopaquinone is measured at 490 nm and converted to activity units using a preset range. A protein assay using the Bicinchoninic Acid (BCA) method is used to estimate cell quantity and thus to homogenize the obtained data.

MITF [4] = experiment: Expression of melanogenesis genes in NHM (qRTPCR): MITF; format: cell-based, human; conditions: 72 h, vs control, n = 4
Description: (§1) NHM are cultivated and brought into contact with the peptide according to the invention or its solvent. At the end of 72 h of contact, the melanocytes are crushed, and the mRNAs are recovered, converted into cDNA which are analyzed by qRTPCR, to estimate the changes in the expression level of the mRNAs. The expression of the following genes has been studied: MITF, TYRP1 and CREB.

CREB = experiment: Expression of melanogenesis genes in NHM (qRTPCR): CREB; format: cell-based, human; conditions: 72 h, vs control, n = 4
Description: as §1

[5] = system: hair follicles (bulb) from a scalp plasty; experiment: Melanin production in the bulb of isolated hair follicles kept in survival for 8 days; format: cell-based, human; conditions: 10 ppm
Description: (§2) Follicles comprising their bulb with little pigment and isolated from a scalp plasty (resulting from cosmetic surgery— donor, dark blond; person) are placed individually in the wells of a culture plate containing the culture medium and maintained for survival (37° C.; 5% CO2).
(§3) Twelve follicles are reserved for T0 to serve as a reference for visual estimation and quantification of pigmentation but also for subsequent labeling of MC1R and MITF by immunohistology (six follicles for each marker).
(§4) Twelve follicles are placed in contact with the peptide according to the invention at 10 ppm in its solvent and twelve others in contact with the solvent alone for 8 days (0.1% DMSO in culture medium). At 8 days, all the follicles are stopped and fixed, then sectioned (7 μm) and marked with alunated carmine and photographed under a microscope. Sections of 6 of them (for each group) are used for visual and quantitative assessment by image analysis of their pigmentation (with specific filter to measure melanin). Sections of the other 6 are used for MC1R and MITF scoring, which is to be assessed by visual estimation.

MC1R = MC1R labelling by immunohistology in isolated hair follicles; format: cell-based, human; conditions: 10 ppm, 8 days
Description: as §2, §3, §4

MITF [6] = experiment: MITF labelling by immunohistology in isolated hair follicles; format: cell-based, human; conditions: 10 ppm, 8 days; decreases in the control case
Description: as §2, §3, §4

[7] = 5 ppm, poorly pigmented (§§) NHM
[8] = 10 ppm, moderately pigmented (§) NHM
[9] = 10 ppm, poorly pigmented (§§) NHM

CCCCCCCCCCCCCCCC(=O)N1CCC[C@H]1C(=O)N1CCC[C@H]1C(=O)O [Pal-PP-OH, palmitoyl-prolyl-proline] (HELM PEPTIDE1{[CCCCCCCCCCCCCCCC(=O)[*:2]].P.P}$$$$V2.0)
Catalase activity, Variation (%) (catalase; 10 ppm, n = 3): +31%; p < 0.01 | Catalase activity, Variation (%) (catalase; 12.5 ppm, n = 3): +37%; p < 0.01 | Catalase activity, Variation (%) (catalase; 12.5 ppm, n = 3, listed as peptide according to the invention): +37% | Reduced glutathione concentration, Variation (%) ([1]; 10 ppm, n = 6): +28%; p < 0.05 | Reduced glutathione concentration, Variation (%) ([1]; 12.5 ppm, n = 6): +38%; p < 0.01 | Reduced glutathione concentration, Variation (%) ([1]; 12.5 ppm, n = 6, listed as peptide of the invention): +38% | expression of the BCL-2 gene, Variation (%) (BCL-2 gene; 10 ppm, n = 4): +62%; p < 0.01 | expression of the BCL-2 gene, Variation (%) (BCL-2 gene; 12.5 ppm, n = 4): +99%; p < 0.01 | expression of the BCL-2 gene, Variation (%) (BCL-2 gene; 12.5 ppm, n = 4, listed as peptide of the invention): +99% | Number of microbeads per image analysis, Variation (%) ([2]; 5 ppm, n = 3): +50%; p < 0.05 | Number of microbeads per image analysis, Variation (%) ([2]; 10 ppm, n = 3): +283%; p < 0.01 | Number of microbeads per image analysis, Variation (%) ([2]; 10 ppm, n = 3, listed as peptide according to the invention): +283% | Melanin concentration, Variation (%) ([3]; 5 ppm, moderately pigmented (§) NHM): +48%; p < 0.01 | Melanin concentration, Variation (%) [3, 7]: +4%; nsd | Melanin concentration, Variation (%) [3, 8]: +123%; p < 0.01 | Melanin concentration, Variation (%) [3, 9]: +81%; p < 0.01 | Melanin concentration, Variation (%) ([3]; 12.5 ppm, moderately pigmented (§) NHM): +223%; p < 0.01 | Melanin concentration, Variation (%) ([3]; 12.5 ppm, poorly pigmented (§§) NHM): +113%; p < 0.01 | Tyrosinase activity, Variation (%) (tyrosinase; [7]): +15%; p < 0.05 | Tyrosinase activity, Variation (%) (tyrosinase; 7 ppm, moderately pigmented (§) NHM): +14%; p < 0.01 | Tyrosinase activity, Variation (%) (tyrosinase; [8]): +27%; p < 0.01 | Tyrosinase activity, Variation (%) (tyrosinase; [9]): +74%; p < 0.01 | variation in the expression of MITF gene (MITF [4]; 10 ppm): +39%; p < 0.01 | variation in the expression of MITF gene (MITF [4]; 12.5 ppm): +42%; p < 0.01 | variation in the expression of CREB gene (CREB; 10 ppm): +46%; p < 0.01 | variation in the expression of CREB gene (CREB; 12.5 ppm): +56%; p < 0.01 | dark pixels corresponding to the deposition of melanin, vs control follicles ([5]; 6 follicles): 11.6 times | Melanin, Quantification by image analysis; % area occupied by black pixels ([5]; follicle bulb, vs control, n = 6 follicles): ×11.6; p < 0.01 | MC1R in the lower sheaths, visual estimation vs control (MC1R): increased more | MC1R in the bulb, visual estimation compared to T0 (MC1R; stable in the control case): increased | MITF in the bulb, visual estimation compared to T0 (MITF [6]): increased
